# pIC50: −log10 of the molar value.
# Experiments:
# Hepatoma cell line HepG2 = assay: CellTiter-Blue cell proliferation and viability assay, HepG2; format: cell-based; settings: Homo sapiens; HepG2, 1% FCS, 72 hours; read-out: IC50 of agent as single agent
# Experimental: (§1) During proliferation assays, all cells were grown in medium containing 1% FCS. […] Treatment was started by the addition of 50 μl of a 2× concentrated drug solution to a final volume of 100 μl. […] After incubating for 72 hours at 37° C., 10 μl of a 1⁄2 dilution of CellTiter-Blue reagent was added to each well and the plates were returned to the incubator for an additional 4 hours. The fluorescence intensity from the CellTiter-Blue reagent is proportional to the number of viable cells and data were recorded (544Ex/590Em) using a POLARstar OMEGA microplate reader (BMG Labteck Sarl). A background control without cells was used as a blank. The positive control of the assay corresponds to the cell proliferation obtained in the absence of drug treatment (100% proliferation). Each sample was done in duplicate, the […] values were transferred to an excel file, the average and standard deviation of the duplicates were calculated and expressed as a percentage of the proliferation obtained in absence of treatment. The results presented are representative of a minimum of 3 experiments.
# [1] = system: Hepatoma cell line PLC-PRF5; assay: CellTiter-Blue cell proliferation and viability assay, PLC-PRF5; format: cell-based; settings: Homo sapiens, PLC-PRF-5; PLC-PRF5, 1% FCS, 72 hours; read-out: IC50 of agent as single agent
# Experimental: as §1
# [2] = clinically achievable concentration; read-out: Approximate Cmax measured in plasma; cited from earlier work
# [3] = system: advanced Hepatocellular carcinoma (BCLC stage C); settings: BCLC C patients, first line sorafenib; cited from earlier work
pIC50 (Hepatoma cell line HepG2),pIC50 [1],SMILES,Cmax [2],median OS [3]
4.00,4.00,CCc1c2c(nc3ccc(OC(=O)N4CCC(N5CCCCC5)CC4)cc13)-c1cc3c(c(=O)n1C2)COC(=O)[C@]3(O)CC [CPT-11],1 to 10 µM,–
5.30,–,COc1cccc2c1C(=O)c1c(O)c3c(c(O)c1C2=O)C[C@@](O)(C(=O)CO)C[C@@H]3O[C@H]1C[C@H](N)[C@H](O)[C@H](C)O1 [DOX],–,–
< 4.00,–,"Nc1ccn([C@@H]2O[C@H](CO)[C@@H](O)C2(F)F)c(=O)n1 [GCB, 2′,2′,-dofluoro-2′,-deoxycytidine]",–,–
6.00 to 7.00,6.00 to 7.00,CC[C@]1(O)C[C@H]2CN(CCc3c([nH]c4ccccc34)[C@@](C(=O)OC)(c3cc4c(cc3OC)N(C=O)[C@H]3[C@@](O)(C(=O)OC)[C@H](OC(C)=O)[C@]5(CC)C=CCN6CC[C@]43[C@@H]65)C2)C1 [VINC],–,–
< 4.00,4.30,COc1cc([C@@H]2c3cc4c(cc3[C@@H](O[C@@H]3O[C@@H]5CO[C@@H](C)O[C@H]5[C@H](O)[C@H]3O)[C@H]3COC(=O)[C@H]23)OCO4)cc(OC)c1O [VP-16],~34 µM,–
< 5.30,< 5.30,Cc1ccc(NC(=O)c2ccc(CN3CCN(C)CC3)cc2)cc1Nc1nc(-c2cccnc2)cs1 [masitinib mesilate],–,–
–,–,CNC(=O)c1cc(Oc2ccc(NC(=O)Nc3ccc(Cl)c(C(F)(F)F)c3)cc2)ccn1 [sorafenib],–,9.5 months

# From patent US20160128999A1 (AB SCIENCE, priority 2014, published 2016)
